In patent EP2951180B1, “2,6,7,8 SUBSTITUTED PURINES AS HDM2 INHIBITORS” (Merck Sharp & Dohme Corp., priority 2013, dated 2014):
pIC50: −log10 of the molar value. Where two headings read alike, the source gives them in different places.

Target: T1, HDM2 (Homo sapiens, UniProt Q00987)
T1 construct: Thioredoxin (N); made in house; host or cells: E. coli strain BL21(DE3)Rosetta
Assay: HDM2 FRET assay (inhibition of binding of FITC labeled p53-pocket peptide to HDM2)
Conditions: read-out: FRET IC50
Method in brief: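 Displacement of FITC-p53 peptide (3 nM) from His-tagged HDM2 (0.5 nM) is measured by Tb-to-fluorescein FRET in PBS, 0.01% BSA, 0.01% Tween-20. IC50 values derive from 10-point curves.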

[1] = 0.5 nM HDM2 (residues 17 to 125), 3nM peptide, two hour incubation at room temperature

T1 sequence (Q00987 17-125): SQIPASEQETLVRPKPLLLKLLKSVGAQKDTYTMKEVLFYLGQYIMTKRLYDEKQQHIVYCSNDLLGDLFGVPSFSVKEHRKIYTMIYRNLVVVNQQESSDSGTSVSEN

C[C@@H](Nc1nc(-c2noc(=O)[nH]2)nc2nc(C3CCCCC3c3ccccc3)n(C[C@H]3CC[C@H](C)CC3)c12)C1CCC1 (single isomer, unassigned) [Example 21.25]
pIC50 (Table 21): 7.54

Cc1cccc(-c2nc3nc(C(=O)O)nc(N[C@H](CCCO)C4CCC4)c3n2Cc2ccc(C(F)(F)F)cc2)c1 [Example 7.2, 6-{[(1R)-1-cyclobutyl-4-hydroxybutyl]amino}-8-(3-methylphenyl)-7-[4-(trifluoromethyl)benzyl]-7H-purine-2-carboxylic acid]
pIC50 (Table 7): 7.39

C[C@@H](Nc1nc(C(=O)O)nc2nc(COc3ccccc3)n(Cc3ccc(C(F)(F)F)cc3)c12)C1CCC1 [Example 10.1, (R)-6-((1-cyclobutylethyl)amino)-8-(phenoxymethyl)-7-(4-(trifluoromethyl)benzyl)-7H-purine-2-carboxylic acid]
pIC50 (Table 10): 7.43

C[C@H]1CC[C@H](Cn2c(N3CCOC[C@H]3c3ccccc3)nc3nc(-c4noc(=O)[nH]4)nc(-c4cc(Cl)nc(Cl)c4)c32)CC1 [Example 16.107, 3-{6-(2,6-dichloropyridin-4-yl)-7-[(trans-4-methylcyclohexyl)methyl]-8-[(3R)-3-phenylmorpholin-4-yl]-7H-purin-2-yl}-1,2,4-oxadiazol-5(4H)-one]
pIC50 [1]: 8.78

COc1cccc(C2CCCCN2c2nc3nc(C(=O)O)nc(N[C@H](C)C4CCC4)c3n2C[C@H]2CC[C@H](C)CC2)c1 (stereo partly drawn) [Example 11.31, 6-{[(1R)-1-cyclobutylethyl]amino}-8-[2-(3-methoxyphenyl)piperidin-1-yl]-7-[(trans-4-methylcyclohexyl)methyl]-7H-purine-2-carboxylic acid]
pIC50 (Table 11): 8.65

C[C@@H](Nc1nc(C(=O)O)nc2nc(C3COCC3c3ccccc3)n(Cc3ccc(C(F)(F)F)cc3)c12)C1CCC1 (single isomer, unassigned) [Example 21.7]
pIC50 (Table 21): 7.54

C[C@@H](Nc1nc(-c2n[nH]c(=O)o2)nc2nc(N3CCO[C@H](C)[C@H]3c3ccccc3)n(C[C@H]3CC[C@H](C)CC3)c12)C1CCC1 [Example 11.166, 5-(6-{[(1R)-1-cyclobutylethyl]amino}-7-[(trans-4-methylcyclohexyl)methyl]-8-[(2R,3R)-2-methyl-3-phenylmorpholin-4-yl]-7H-purin-2-yl)-1,3,4-oxadiazol-2(3H)-one]
pIC50 (Table 11): 9.10

CC1CCCN(c2nc3nc(-c4noc(=O)[nH]4)nc(N[C@H](C)C4CCC4)c3n2C[C@H]2CC[C@H](C)CC2)C1c1ccccc1 (stereo partly drawn) [Example 11.7, 3-(6-(((R)-1-cyclobutylethyl)amino)-8-(3-methyl-2-phenylpiperidin-1-yl)-7-((trans-4-methylcyclohexyl)methyl)-7H-purin-2-yl)-1,2,4-oxadiazol-5(4H)-one]
pIC50 (Table 11): 8.20

C[C@@H](Nc1nc(C(=O)O)nc2nc(N3CCCCC3c3ccccn3)n(Cc3ccc(C(F)(F)F)cc3)c12)C1CCC1 (stereo partly drawn) [Example 9.53, 6-{[(1R)-1-cyclobutylethyl]amino}-8-(2-pyridin-2-ylpiperidin-1-yl)-7-[4-(trifluoromethyl)benzyl]-7H-purine-2-carboxylic acid]
pIC50 (Table 9): 7.58

C[C@H]1CC[C@H](Cn2c(C(=O)C3CCCCC3)nc3nc(-c4noc(=O)[nH]4)nc(-c4cccc(Cl)c4)c32)CC1 [Example 23.6, 3-{6-(3-chlorophenyl)-8-(cyclohexylcarbonyl)-7-[(trans-4-methylcyclohexyl)methyl] -7H-purin-2-yl}-1,2,4-oxadiazol-5(4H)-one]
pIC50 (Table 23): 7.86

C[C@@H](Nc1nc(-c2noc(=O)[nH]2)nc2nc(N3CCCC[C@@H]3c3ccccc3)n(C[C@H]3CC[C@H](C)CC3)c12)C1CCC1 [Example 11.13, 3-(6-{[(1R)-1-cyclobutylethyl]amino}-7-[(trans-4-methylcyclohexyl)methyl]-8-[(2R)-2-phenylpiperidin-1-yl]-7H-purin-2-yl)-1,2,4-oxadiazol-5(4H)-one]
pIC50 (Table 11): 7.57

CC(C)CNC(=O)c1nc2nc(C(=O)O)nc(N[C@H](C)C3CCC3)c2n1Cc1ccc(C(F)(F)F)cc1 [Example 10.16, (R)-6-((1-Cyclobutylethyl)amino)-8-(isobutylcarbamoyl)-7-(4-(trifluoromethyl)benzyl)-7H-purine-2-carboxylic acid]
pIC50 (Table 10): 7.43

CC(Nc1nc2nc(-c3noc(=O)[nH]3)nc(N[C@H](C)C3CCC3)c2n1C[C@H]1CC[C@H](C)CC1)c1ccncn1 (stereo partly drawn) [Example 11.89, 3-(6-{[(1R)-1-cyclobutylethyl]amino}-7-[(trans-4-methylcyclohexyl)methyl]-8-[(1-pyrimidin-4-ylethyl)amino]-7H-purin-2-yl)-1,2,4-oxadiazol-5(2H)-one]
pIC50 (Table 11): 7.86

C[C@@H](Nc1nc(-c2noc(=O)[nH]2)nc2nc(N3CCOC[C@H]3Cc3ccccc3)n(C[C@H]3CC[C@H](C)CC3)c12)C1CCC1 [Example 11.101, 3-{8-[(3R)-3-benzylmorpholin-4-yl]-6-{[(1R)-1-cyclobutylethyl]amino}-7-[(trans-4-methylcyclohexyl)methyl]-7H-purin-2-yl}-1,2,4-oxadiazol-5(4H)-one]
pIC50 (Table 11): 7.79

C[C@@H](Nc1nc(C(=O)O)nc2nc(N3CCN(C)CC3)n(Cc3ccc(C(F)(F)F)cc3)c12)C1CC1 [Example 9.5, 6-{[(1R)-1-cyclopropylethyl]amino}-8-(4-methylpiperazin-1-yl)-7-[4-(trifluoromethyl)benzyl]-7H-purine-2-carboxylic acid]
pIC50 (Table 9): 5.63

C[C@H]1CC[C@H](Cn2c(N3CCOC[C@H]3CF)nc3nc(-c4n[nH]c(=O)o4)nc(-c4cncc(Cl)c4)c32)CC1 [Example 16.139, 5-{6-(5-chloropyridin-3-yl)-8-[(3S)-3-(fluoromethyl)morpholin-4-yl]-7-[(trans-4-methylcyclohexyl)methyl]-7H-purin-2-yl}-1,3,4-oxadiazol-2(3H)-one]
pIC50 [1]: 7.43

C[C@@H](Nc1nc(-c2n[nH]c(=O)o2)nc2nc(N3CCO[C@H](C)[C@@H]3C)n(C[C@H]3CC[C@H](C)CC3)c12)C1CCC1 (single isomer, unassigned) [Example 11.158]
pIC50 (Table 11): 7.89

C[C@@H](Nc1nc(-c2noc(=O)[nH]2)nc2nc(C3(c4nccs4)CC3)n(C[C@H]3CC[C@H](C)CC3)c12)C1CCC1 [Example 22.59, 3-(6-{[(1R)-1-cyclobutylethyl]amino}-7-[(trans-4-methylcyclohexyl)methyl] -8-[1-(1,3-thiazol-2-yl)cyclopropyl]-7H-purin-2-yl)-1,2,4-oxadiazol-5(4H)-one]
pIC50 (Table 22): 8.64

C[C@@H](Nc1nc(C(=O)O)nc2nc(N(C)C3CCCCC3)n(Cc3ccc(C(F)(F)F)cc3)c12)C1CCC1 [Example 9.15, 6-{[(1R)-1-cyclobutylethyl]amino}-8-[cyclohexyl(methyl)amino]-7-[4-(trifluoromethyl)benzyl]-7H-purine-2-carboxylic acid]
pIC50 (Table 9): 8.13

C[C@H]1CC[C@H](Cn2c(N3CCCC4COCCC43)nc3nc(-c4noc(=O)[nH]4)nc(-c4cccc(Cl)c4)c32)CC1 (single isomer, unassigned) [Example 16.118, 3-{6-(3-chlorophenyl)-8-(hexahydro-2H-pyrano[4,3-b]pyridin-1(5H)-yl)-7-[(trans-4-methylcyclohexyl)methyl]-7H-purin-2-yl}-1,2,4-oxadiazol-5(4H)-one]
pIC50 [1]: 7.65
